# Measurements: patent US6391880B1, “Heterocyclic compounds useful as oxido-squalene cyclase inhibitors” (Zeneca Limited, priority 1997, dated 2002)
# Experiments:
# [1] = test system: rat cholesterol biosynthesis; assay: In vivo test to measure inhibition of oxido-squalene cyclase / cholesterol biosynthesis in the rat; settings: dosed at 2 mg/kg, oral
# Description: (b) In Vivo Test to Measure Inhibition of Oxido-Squalene Cyclase
# The ability of a compound to inhibit oxido-squalene cyclase and/or inhibit cholesterol biosynthesis may be assessed by a routine laboratory procedure carried out in the rat. The test involves administration of the compound to rats on a reversed lighting regimen. Female rats (35-55 g) are housed in reverse lighting conditions (red light from 0200 h-1400 h) for a period of about 2 weeks prior to test. Animals are allowed free access to chow and drinking water throughout this period. At test, animals should weigh 100-140 g. The rats are dosed orally with the compound (typically 10-50 mg/kg) formulated in apolyethylene glycol/hydroxypropylmethyl cellulose mix. After 1 hour the rats are given […] sodium mevalonate (15 μCi/kg) intraperitoneally. Two hours after administration of the compound the rats are terminated and a piece of liver removed and weighed. The tissue is saponified at 80° C. for 2 hours in an ethanolic/potassium hydroxide solution (80% w/v aqueous KOH diluted 1:10 with ethanol). Water (2 ml) is added and the mixture extracted with iso-hexane (2×5 ml). The organic extracts are combined, evaporated to dryness under a stream of nitrogen and the residue is dissolved in a mixture of acetonitrile/iso-propanol (300 μl). […] The radio-label content of each fraction is assessed using a radio chemical flow detector. […]
# [2] = molecular target: T1, rat microsomal oxido-squalene cyclase (Rattus norvegicus, UniProt P48450); assay: In vitro test to measure inhibition of oxido-squalene cyclase; format: biochemical; settings: at a concentration of 0.1 μM; rat liver microsomes
# T1 construct: Microsomes are prepared from rat liver according to methods known in the art; from tissue; host or cells: rat liver microsomes
# T1 sequence (P48450 1-733): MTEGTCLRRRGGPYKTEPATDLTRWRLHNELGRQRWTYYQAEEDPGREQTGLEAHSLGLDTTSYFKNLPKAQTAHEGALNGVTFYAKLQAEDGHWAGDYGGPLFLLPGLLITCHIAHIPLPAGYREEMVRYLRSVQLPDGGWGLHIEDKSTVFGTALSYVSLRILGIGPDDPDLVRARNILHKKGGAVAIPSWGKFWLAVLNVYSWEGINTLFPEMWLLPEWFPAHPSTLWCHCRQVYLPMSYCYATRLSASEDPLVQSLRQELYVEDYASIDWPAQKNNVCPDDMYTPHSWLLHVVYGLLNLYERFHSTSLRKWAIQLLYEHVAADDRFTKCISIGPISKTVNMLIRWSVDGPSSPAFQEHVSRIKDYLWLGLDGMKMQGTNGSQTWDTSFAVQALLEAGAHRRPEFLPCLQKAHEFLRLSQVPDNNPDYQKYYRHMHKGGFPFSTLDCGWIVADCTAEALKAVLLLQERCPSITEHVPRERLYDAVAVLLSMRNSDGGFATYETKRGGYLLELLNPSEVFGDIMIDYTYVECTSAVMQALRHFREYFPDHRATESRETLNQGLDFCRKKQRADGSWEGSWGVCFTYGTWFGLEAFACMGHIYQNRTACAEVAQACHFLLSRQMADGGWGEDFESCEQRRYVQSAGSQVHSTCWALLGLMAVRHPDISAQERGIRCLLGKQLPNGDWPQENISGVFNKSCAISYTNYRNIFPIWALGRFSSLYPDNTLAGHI
# Description: (a) In Vitro Test to Measure Inhibition of Oxido-Squalene Cyclase
# This test measures the inhibition of microsomal oxido-squalene cyclase in vitro by compounds at set concentrations in the incubation medium.
# Microsomes are prepared from rat liver according to methods known in the art, for example, the method described in published European Patent Application No 324,421 and stored in liquid nitrogen prior to assay. Assay vials are kept at 37° C. throughout the incubation. The microsomes typically contain 15-20 mg of protein per ml of microsomes. For assay, 1 ml of microsomes are diluted by the addition of 722 μl of 50 mM phosphate buffer pH 7.4.
# Phosphate buffered Tween 80 (polyoxyethylene sorbitan […]) is prepared by adding 0.1 g Tween 80 to 100 ml of 50 mM phosphate buffer.
# A stock solution of oxido-squalene is made up as a solution in ethanol (0.65 mg. ml.^−1). 18 μl of radio-labelled oxido-squalene (1 μCi.ml^−1) is evaporated to dryness under a stream of nitrogen and redissolved in 1 ml of ethanol and 1 ml of the stock solution of oxido-squalene is added.
# The test compound is dissolved in dimethyl sulphoxide to give a 10^−4M stock solution. […]
# The samples are then placed in a water bath at 80° C. for 2 hours to saponify. […] Reaction rate is measured as the conversion of oxido-squalene to lanosterol, and the effects of test compounds are expressed as an inhibition of this process.
Compound,melting point [°C],inhibition of rat cholesterol biosynthesis [1],inhibition of rat microsomal oxido-squalene cyclase [2]
O=C(C1CCN(S(=O)(=O)c2ccc(Br)cc2)CC1)N1CCC(c2ccncc2)CC1,154 to 155,–,–
O=C(N1CCC(c2ccncc2)CC1)N1CCN(S(=O)(=O)c2ccc(Br)cc2)CC1 [Example 2],–,about 85%,about 94%
